Structures are written as SMILES. The source made the active and inactive calls.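 Rule for the calls: active = caspase luminescence falls with dose and the half-maximal concentration AC50 from the fitted curve is at or below a set limit; inconclusive = flat fit at 30 to 70% signal loss, or invalid fit; inactive = AC50 above the limit, or signal rises instead.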

The AC50 is the midpoint of the concentration-response curve, whichever way the signal moves.

This experiment deals with INS-1E cytokine-induced caspase-3/7, Caspase-Glo luminescence, 48 h. Put plainly: suppression of cytokine-driven beta-cell apoptosis – INS-1E rat cells, luminescence, orthogonal assay for beta-cell apoptosis protection project, dose response (AID 463206).
Take `O=C(Cc1ccc([N+](=O)[O-])cc1)Nc1cccnc1`: the AC50 was > 26 µM (inactive).

In the case of `CSc1ccc(S(=O)(=O)Nc2ccc(N3CCOCC3)c(Cl)c2)cc1`, the AC50 was > 26 µM (inactive).

`CCN(CC)CCNC(=O)c1ccc(NC(=O)c2cn(-c3ccccc3)nc2-c2cccs2)cc1`: the AC50 was 18.2 µM.

On to `Cc1ccc(CSC(Nc2ccc(F)cc2)=C(C#N)C#N)cc1`, for which the AC50 is > 26 µM (inactive).

In the case of `CCN(CC)S(=O)(=O)c1ccc(Oc2ccc(S(=O)(=O)N(CC)CC)cc2)cc1`, the AC50 was > 26 µM (inactive).

Take `Cc1ccc(S(=O)(=O)N2CCN(c3ncnc4ccccc34)CC2)cc1`: the AC50 was > 26 µM (inactive).

Consider `O=C(NCc1cccnc1)c1cc(-c2ccco2)on1`, for which the AC50 was > 26 µM (inactive).

As for `S=C(NCc1ccc(Cl)cc1)NC12CC3CC(CC(C3)C1)C2`, the AC50 is > 26 µM (inactive).

Regarding `CCCC(=O)NC(c1ccc(Cl)cc1)c1ccc2cccnc2c1O` (stereo not drawn), the AC50 is > 26 µM (inactive).

As for `Cc1ccc(C)c(NC(=S)NC(NC(=O)Cc2cccc3ccccc23)C(Cl)(Cl)Cl)c1` (stereo not drawn), the AC50 is > 26 µM (inactive).

As to `COc1cccc(-c2nc(-c3ccc(NC(=O)c4cccnc4)cc3)no2)c1`, the AC50 is > 26 µM (inactive).

Turning to `Fc1ccc(CN(Cc2ccccc2)C(c2cccs2)c2nnnn2C2CCCCC2)cc1` (stereo not drawn), the AC50 is > 26 µM (inactive).

On to `Cc1cc(C)n(Cc2ccc(NC(=O)c3ccc(COc4ccccc4Br)cc3)cc2)n1`, for which the AC50 is > 26 µM (inactive).

Take `COc1cc(CNCCO)cc(Cl)c1OCc1ccc(Cl)cc1Cl`: the AC50 was > 26 µM (inactive).

Take `CCN1/C(=C/C=C/c2oc3ccc(-c4ccccc4)cc3[n+]2CC)Oc2ccc(-c3ccccc3)cc21`: the AC50 was > 26 µM (inactive).

For the compound `CC1=C(CO)C(=O)OC([C@@H](C)C2CC[C@H]3C4C[C@H]5O[C@]56[C@@H](O)C=CC(=O)[C@]6(C)C4CC[C@]23C)C1` (stereo partly drawn), the AC50 is > 26 µM (inactive).

With `O=C(NCCCn1ccnc1)c1ccc(-c2ccccc2)cc1`, the AC50 is > 26 µM (inactive).

As for `O=C(CN1CCCc2ccccc21)N/N=C/c1ccccc1O`, the AC50 was > 26 µM (inactive).

`CCCN(CCC)C(=O)c1cc([N+](=O)[O-])cc2c1-c1ccc([N+](=O)[O-])cc1C2=C(C#N)C#N`: the AC50 is > 26 µM (inactive).

`CCC(C)(C)c1ccc(OCCCC[n+]2ccc(C)cc2)c(C(C)(C)CC)c1`: the AC50 was > 26 µM (inactive).

As to `COc1cc(SC#N)ccc1N=Cc1c(C)[nH]n(-c2ccc(C)c(C)c2)c1=O`, the AC50 is > 26 µM (inactive).

Consider `O=C(CC1C(=O)NCCN1Cc1ccc(-c2ccccc2)cc1)NC1CCC1` (stereo not drawn), for which the AC50 was > 26 µM (inactive).

As for `CC(=O)NC(c1cccs1)c1cc(F)c2cccnc2c1O` (stereo not drawn), the AC50 is > 26 µM (inactive).

As to `CNC(=S)N(Cc1cccs1)Cc1cc2cc(OC)c(OC)cc2[nH]c1=O`, the AC50 is > 26 µM (inactive).

As to `O=C(N/N=C/c1sc2ccccc2c1O)c1cccc2ccccc12`, the AC50 was > 26 µM (inactive).

For the compound `O=C(OCn1ncc(Br)c(Br)c1=O)c1ccc(F)cc1`, the AC50 was > 26 µM (inactive).

For the compound `CCCCCCn1c2c(c(=N)c3c1CCC3)CCC2`, the AC50 was > 26 µM (inactive).

As for `Cc1ccc(-c2cn(-c3ccc(OC(F)F)cc3)c3[n+]2CCCCC3)cc1`, the AC50 was > 26 µM (inactive).

As for `O=C(NC(c1cccnc1)C(F)(F)F)c1cc(COc2ccc3c(c2)CCCC3)on1` (stereo not drawn), the AC50 is > 26 µM (inactive).

Turning to `N#Cc1ccc(NC(=O)Nc2ccc(Cl)cc2)cc1`, the AC50 was > 26 µM (inactive).

With `CCN(c1ccccc1)S(=O)(=O)c1ccc(C(=O)NC2CCN(Cc3ccccc3)CC2)cc1`, the AC50 is > 26 µM (inactive).

In the case of `O=c1nccc(N/N=C/c2ccccc2O)[nH]1`, the AC50 is > 26 µM (inactive).

For `O=C(/C=C/c1cccc(Cl)c1)c1ccc([N+](=O)[O-])o1`, the AC50 was > 26 µM (inactive).

For `CCC(C)(C)c1ccc(OCCCC[n+]2ccccc2)c(C(C)(C)CC)c1`, the AC50 is > 26 µM (inactive).

As to `Cc1ccc(-c2nn(-c3ccccc3)cc2/C=N/NC(=O)c2ccc3c(c2)OCO3)cc1`, the AC50 is > 26 µM (inactive).

Regarding `COC(=O)[C@H](Cc1ccccc1)N(Cc1ccccc1)S(=O)(=O)N(Cc1ccccc1)[C@@H](Cc1ccccc1)C(=O)OC`, the AC50 is > 26 µM (inactive).

Consider `COc1ccc(CNC(=O)c2c(C)oc3c2C(=O)c2ccccc2C3=O)cc1`, for which the AC50 is > 26 µM (inactive).

As for `FC(F)(F)c1ccccc1NC(=S)N1CCc2ccccc2C1`, the AC50 was > 26 µM (inactive).

For `Cc1ccc(-c2c[n+]3c(n2-c2ccccc2)CCC3)cc1`, the AC50 was > 26 µM (inactive).

With `O=[N+]([O-])c1ccc(Sc2cccc3cccnc23)c([N+](=O)[O-])c1`, the AC50 is > 26 µM (inactive).

As to `CCCOc1ccc(CSc2nc3ccccc3[nH]2)cc1`, the AC50 was > 26 µM (inactive).

For the compound `COc1ccc(-n2cc(-c3ccc(OC(F)F)cc3)[n+]3c2CCCCC3)cc1`, the AC50 was > 26 µM (inactive).

On to `CC1=C(C#N)C(C(F)(F)F)(C(F)(F)F)N=C(c2ccco2)N1`, for which the AC50 was > 26 µM (inactive).

On to `COc1cc(-c2nc3ccc(C)cn3c2NCc2ccccc2)ccc1SC1CCCCC1`, for which the AC50 is > 26 µM (inactive).

In the case of `CS(=O)(=O)N(CC(=O)Nc1ccc(CC#N)cc1)c1ccc(C23CC4CC(CC(C4)C2)C3)cc1`, the AC50 is > 26 µM (inactive).

Take `NC(=S)N/N=C/c1ccccc1O`: the AC50 was > 26 µM (inactive).

With `COC(=O)[C@H](CC(C)C)N(Cc1ccccc1)S(=O)(=O)N(Cc1ccccc1)[C@@H](CC(C)C)C(=O)OC`, the AC50 was > 26 µM (inactive).

In the case of `O=C(c1cccnc1)N(c1cc2sc(=O)oc2c2ccccc12)S(=O)(=O)c1ccccc1`, the AC50 is > 26 µM (inactive).

`CCOC(=O)c1nc(NNC(=O)c2ccc([N+](=O)[O-])cc2)sc1C`: the AC50 is > 26 µM (inactive).

For the compound `CC(=O)Nc1ccc(NC2=C/C(=N/S(=O)(=O)c3cccs3)c3ccccc3C2=O)cc1`, the AC50 was > 26 µM (inactive).

With `Cc1ccc(S(=O)(=O)Nc2ccc(O)c3ccccc23)c(C)c1`, the AC50 is > 26 µM (inactive).

With `O=C(Nc1ccc(-c2csc(Nc3cccc(C(F)(F)F)c3)n2)cc1)c1cc([N+](=O)[O-])cc(C(F)(F)F)c1`, the AC50 is > 26 µM (inactive).

For `O=C1C=C(Nc2ccc(F)cc2)c2ccccc2C1=O`, the AC50 is > 26 µM (inactive).

Consider `Cc1cc(C)c(C)c(S(=O)(=O)N2CCN(c3ncnc4ccccc34)CC2)c1C`, for which the AC50 was > 26 µM (inactive).

With `Cc1nc(C)c(C(=O)N/N=C/c2cc(Br)ccc2O)s1`, the AC50 was > 26 µM (inactive).

On to `CC(=O)c1c(C)oc2c1C(=O)c1ccccc1C2=O`, for which the AC50 was > 26 µM (inactive).

Consider `Oc1c(C(c2ccccc2Cl)N2CCCC2)ccc2cccnc12` (stereo not drawn), for which the AC50 is > 26 µM (inactive).

Turning to `COc1ccc(N2CC(C(=O)N3CCN(c4ccccc4F)CC3)CC2=O)cc1` (stereo not drawn), the AC50 is > 26 µM (inactive).

`COc1cc(NC(=O)c2ccc([N+](=O)[O-])o2)ccc1NC(=O)c1cccs1`: the AC50 is > 26 µM (inactive).

As to `COC(=O)C1=C(C)N(Cc2ccccc2)C(=NCc2ccccc2)N[C@H]1c1cccc(C(F)(F)F)c1`, the AC50 was > 26 µM (inactive).

Regarding `CC(C)CC(=O)NC(c1cccs1)c1ccc2cccnc2c1O` (stereo not drawn), the AC50 is > 26 µM (inactive).

For the compound `CCCCCCCCCCCCCCCC[N+](C)(C)C`, the AC50 was > 26 µM (inactive).

As to `COc1ccc2cc(C(=O)N/N=C/c3sc4ccccc4c3O)ccc2c1`, the AC50 was > 26 µM (inactive).

Take `Cc1cccc2sc(NNC(=O)c3ccc(S(=O)(=O)N4CCCC(C)C4)cc3)nc12` (stereo not drawn): the AC50 was > 26 µM (inactive).

As to `CCCCNC(=O)c1ccc(Cn2c(=S)[nH]c3c([nH]c4ccc(OC)cc43)c2=O)cc1`, the AC50 is > 26 µM (inactive).

Consider `COc1ccc(Cc2nnc(N/N=C/c3ccc(O)cc3)[nH]c2=O)cc1OC`, for which the AC50 was > 26 µM (inactive).

For the compound `COc1ccc2[nH]c3c(C)c4ccncc4c(C)c3c2c1`, the AC50 was 1.32 µM.

Consider `O=[N+]([O-])c1cc(C(F)(F)F)ccc1NCCCCNS(=O)(=O)c1ccc(Cl)cc1`, for which the AC50 was > 26 µM (inactive).

Regarding `CCCCCCSc1cc(-c2nc3ccc(C)cn3c2NCc2ccccc2)ccc1OC`, the AC50 is > 26 µM (inactive).

Regarding `COc1ccc([C@H]2CC(=O)C=C(c3ccnc4ccc(Cl)cc34)C2)cc1`, the AC50 was > 26 µM (inactive).

In the case of `Cc1ccc(/C=N/Nc2ccnc3cc(Cl)ccc23)c(C)c1`, the AC50 was > 12 µM (inactive).

As to `Cc1oc(/N=C/c2ccccc2)c(C#N)c1C`, the AC50 was > 26 µM (inactive).

For the compound `CC(=O)OC1COC(OC2C(O)C(C)OC(OC3C(OC4CCC5(C)C(CCC6(C)C5CC=C5C7CC(C)(C)CCC7(C(=O)O)CCC56C)C4(C)CO)OCC(O)C3O)C2O)C(O)C1OC(C)=O` (stereo not drawn), the AC50 was > 26 µM (inactive).

Take `COc1cnc(-c2ccccn2)nc1N(C)C`: the AC50 was > 26 µM (inactive).

For `Cc1ccc2c(c1)S/C(=C/c1ccc[n+](C)c1)N2CCO`, the AC50 is > 26 µM (inactive).

In the case of `NC(N)=N/N=C/c1ccc(N(c2ccccc2)c2ccccc2)cc1`, the AC50 is > 26 µM (inactive).

Regarding `COc1ccc(/C(C)=N/Nc2nc(C)cc(-c3ccccc3)n2)cc1`, the AC50 is > 26 µM (inactive).

As for `Cc1csc2c(N3CCN(C(=O)c4ccc(C(C)(C)C)cc4)CC3)ncnc12`, the AC50 was > 26 µM (inactive).

For `O=C(COC(=O)Cn1cnc2ccccc2c1=O)Nc1ccc2c(c1)OCO2`, the AC50 was > 26 µM (inactive).

`C(/CCc1ccccc1)=N\Nc1nc2ccccc2[nH]1`: the AC50 was > 26 µM (inactive).

With `CCOc1cc(/C=N/Nc2cc(C)nc(-n3nc(C)cc3C)n2)ccc1O`, the AC50 was > 26 µM (inactive).

Turning to `CC(C)CC[n+]1ccn(C2=C([O-])c3ccccc3C(=O)/C2=N\S(=O)(=O)c2ccccc2)c1`, the AC50 was > 26 µM (inactive).

Regarding `CCc1ccc(C2CC(c3cccc(Cl)c3)n3nc(N)nc3N2)cc1` (stereo not drawn), the AC50 is > 12 µM (inactive).

Values taken from PubChem BioAssay AID463206 (Broad Institute, 2010).
